Source: patent US7157482B2, “Antibacterial 1,3-oxazolidin-2-one derivatives” (AstraZeneca AB, priority 2003, dated 2007)
≈ marks a conversion by molar mass, not a printed value.

Legend:
[1] = test system: Staphylococcus aureus MSQS (methicillin sensitive and quinolone sensitive); assay: MIC, agar-dilution, Staphylococcus aureus MSQS; format: cell-based; conditions: S. aureus MSQS, inoculum 10^4 CFU/spot, 37° C., 24 hours
Description: (§1) The following results were obtained on a standard in-vitro test system. The activity is described in terms of the minimum inhibitory concentration (MIC) determined by the agar-dilution technique with an inoculum size of 10^4 CFU/spot. Typically, compounds are active in the range 0.01 to 256 μg/ml.
(§2) Staphylococci were tested on agar, using an inoculum of 10^4 CFU/spot and an incubation temperature of 37° C. for 24 hours—standard test conditions for the expression of methicillin resistance.

[2] = test system: Staphylococcus aureus MRQR (methicillin resistant and quinolone resistant); assay: MIC, agar-dilution, Staphylococcus aureus MRQR; format: cell-based; conditions: S. aureus MRQR, inoculum 10^4 CFU/spot, 37° C., 24 hours
Description: as §1, §2

Streptococcus pneumoniae = assay: MIC, agar-dilution, Streptococcus pneumoniae; format: cell-based; conditions: agar with 5% defibrinated horse blood, 10^4 CFU/spot, 37° C., 5% carbon dioxide, 48 hours
Description: as §1
(§3) Streptococci and enterococci were tested on agar supplemented with 5% defibrinated horse blood, an inoculum of 10^4 CFU/spot and an incubation temperature of 37° C. in an atmosphere of 5% carbon dioxide for 48 hours—blood is required for the growth of some of the test organisms. Fastidious Gram negative organisms were tested in Mueller-Hinton broth, supplemented with hemin and NAD, grown aerobically for 24 hours at 37° C., and with an innoculum of 5×10^4 CFU/well.

Moraxella catarrhalis = assay: MIC, Moraxella catarrhalis; format: cell-based; conditions: fastidious Gram negative: Mueller-Hinton broth with hemin and NAD, 24 hours, 37° C., 5×10^4 CFU/well
Description: as §1, §3

Enterococcus faecium = assay: MIC, agar-dilution, Enterococcus faecium; format: cell-based; conditions: agar with 5% defibrinated horse blood, 10^4 CFU/spot, 37° C., 5% carbon dioxide, 48 hours
Description: as §1, §3

MAO-A = target: T1, MAO-A (Homo sapiens, UniProt P21397); assay: MAO-A in-vitro assay, human liver enzyme expressed in yeast; format: biochemical
T1 construct: made in house; host or cells: yeast
T1 sequence (P21397 1-527): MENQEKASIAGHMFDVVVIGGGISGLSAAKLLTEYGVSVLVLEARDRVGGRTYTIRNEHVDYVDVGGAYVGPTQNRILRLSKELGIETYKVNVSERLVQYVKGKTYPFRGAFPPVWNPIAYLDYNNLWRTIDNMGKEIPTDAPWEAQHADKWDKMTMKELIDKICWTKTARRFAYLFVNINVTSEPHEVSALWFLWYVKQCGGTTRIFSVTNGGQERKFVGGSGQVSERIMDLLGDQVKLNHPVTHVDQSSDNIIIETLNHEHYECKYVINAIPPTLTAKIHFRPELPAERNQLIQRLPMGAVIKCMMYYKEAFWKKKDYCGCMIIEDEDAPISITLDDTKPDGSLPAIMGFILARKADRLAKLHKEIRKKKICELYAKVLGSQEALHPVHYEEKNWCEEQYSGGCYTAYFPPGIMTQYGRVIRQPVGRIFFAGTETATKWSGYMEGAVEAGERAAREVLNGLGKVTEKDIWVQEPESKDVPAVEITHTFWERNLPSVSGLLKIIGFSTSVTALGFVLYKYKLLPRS
Description: The activity of the compounds of the invention against MAO-A was tested using a standard in-vitro assay based on human liver enzyme expressed in yeast as described in Biochem. Biophys. Res. Commun. 1991, 181, 1084–1088.

SMILES | MIC [1] | MIC [2] | MIC (Streptococcus pneumoniae) | MIC (Moraxella catarrhalis) | MIC (Enterococcus faecium) | Ki (MAO-A)
Cc1cn(C[C@H]2CN(c3ccc(-c4cc(C)no4)c(F)c3)C(=O)O2)nn1 [Example 1, (5R)-3-[3-Fluoro-4-(3-methylisoxazol-5-yl)phenyl]-5-[(4-methyl-1H-1,2,3-triazol-1-yl)methyl]-1,3-oxazolidin-2-one] | 4 mg/L (≈ 11.2 µM) | 1 mg/L (≈ 2.8 µM) | 0.5 mg/L (≈ 1.4 µM) | 1 mg/L (≈ 2.8 µM) | 1 mg/L (≈ 2.8 µM) | 58.8 µM
Cc1cc(-c2ccc(N3C[C@H](Cn4ccnn4)OC3=O)cc2F)on1 [unsubstituted triazole equivalent, reference compound] | – | – | – | – | – | 6.99 µM
